Legend:
[1] = molecular target: T1, human LMPTP-A (Homo sapiens, UniProt P24666)
T1 sequence (P24666 1-158): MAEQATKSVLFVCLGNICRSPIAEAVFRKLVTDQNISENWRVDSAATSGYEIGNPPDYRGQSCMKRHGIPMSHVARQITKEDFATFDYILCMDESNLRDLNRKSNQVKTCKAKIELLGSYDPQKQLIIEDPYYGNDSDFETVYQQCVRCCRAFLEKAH

[2] = Mouse pharmacokinetics; conditions: in vivo, iv, 2 mg/kg
[3] = molecular target: T1, human LMPTP-A; assay: LMPTP biochemical inhibition assay; conditions: for LMPTP potency, in words (Table 3 series): substitution of the benzyl substituent off the 3-position
[4] = tested on: HepG2 hepatocytes; assay: Insulin-stimulated AKT Thr308 phosphorylation in HepG2 hepatocytes; assay type: cell-based, human; conditions: 500 nM overnight, 10 nM insulin 5 min
[5] = tested on: diabetic DIO mice; assay: DIO diabetes model; assay type: in vivo, mouse; conditions: 2 weeks
[6] = tested on: VHR; conditions: HTS workflow; cited from earlier work
[7] = tested on: LYP; conditions: HTS workflow; cited from earlier work
[8] = tested on: panel of PTPs (class I tyrosine-specific and dual-specific PTPs); conditions: 40 μM compound; no other PTP tested
[9] = 0.03% in HFD chow, 10 min after IP insulin

Structure (SMILES): Cc1ccccc1-c1nc2c(N)ncn(Cc3c(Cl)cccc3Cl)c-2n1 [5d]
- mechanism of LMPTP inhibition [1]: uncompetitive
- potency at varying substrate concentrations ([1]; 20 nM human LMPTP-A, increasing OMFP): enhanced potency in the presence of increasing substrate
- clearance at 24 h [2]: 69 mL/min/kg

Structure (SMILES): Nc1ncn(Cc2ccccc2)c2ncnc1-2 [6a]
- LMPTP potency, in words (Table 3 series) [3]: decreased potency

Structure (SMILES): Nc1ncn(Cc2ccccc2Cl)c2ncnc1-2 [6b]
- LMPTP potency, in words (Table 3 series) [3]: decreased potency

Structure (SMILES): Nc1ncn(Cc2ccc(Cl)cc2Cl)c2ncnc1-2 [6c]
- LMPTP potency, in words (Table 3 series) [3]: decreased potency

Structure (SMILES): Nc1ncn(Cc2cccc(Cl)c2)c2ncnc1-2 [6d]
- LMPTP potency, in words (Table 3 series) [3]: decreased potency

Structure (SMILES): Nc1ncn(Cc2ccc(Cl)cc2)c2ncnc1-2 [6e]
- LMPTP potency, in words (Table 3 series) [3]: decreased potency

Structure (SMILES): Cc1cccc(C)c1Cn1cnc(N)c2ncnc1-2 [6f]
- fold loss in potency (LMPTP) ([3]; benzyl substituent off the 3-position, compared with 2,6-bisubstitution): 10 fold

Structure (SMILES): Nc1ncn(Cc2c(Cl)cncc2Cl)c2ncnc1-2 [6g]
- HepG2 AKT Thr308 phosphorylation after insulin stimulation [4]: substantially increased
- mechanism of LMPTP inhibition [1]: uncompetitive
- glucose tolerance (IPGTT) ([5]; 0.03% in HFD chow (roughly 30 mg/kg/day)): significantly improved
- fasting insulin levels ([5]; 0.03% in HFD chow): decreased
- insulin-stimulated phosphorylation of the IR activation motif in liver [5, 9]: increased
- phosphorylation of AKT Thr308 in liver [5, 9]: increased
- clearance at 24 h [2]: 18 mL/min/kg

Structure (SMILES): Cc1ccccc1-c1nc2c(N)ncn(Cc3c(Cl)cncc3Cl)c-2n1 [6h]
- LMPTP potency, in words (Table 3 series) [3]: additional boost in potency
- clearance at 24 h [2]: 103 mL/min/kg

Structure (SMILES): Clc1cccc(Cl)c1Cn1cnc(=NCc2ccco2)c2[nH]cnc21 [compound 2]
- selectivity for LMPTP over VHR [6]: high selectivity
- selectivity for LMPTP over LYP [7]: high selectivity

Structure (SMILES): Nc1ncn(Cc2c(Cl)cccc2Cl)c2ncnc1-2 [compound 3]
- fold more potent than 2 (LMPTP) ([3]; compared with 2): > 10 fold
- clearance at 24 h [2]: 5.8 mL/min/kg
- inhibition of other PTPs of the panel [8]: < 50%
